From article PMC3445454, “Broad and Cross-Clade CD4^+ T-Cell Responses Elicited by a DNA Vaccine Encoding Highly Conserved and Promiscuous HIV-1 M-Group Consensus Peptides” (PLoS ONE, 2012)
Numbering of substitutions follows the chain as printed. Where two headings read alike, the source gives them in different places.

Legend:
Assay in all cases: biochemical
Type in all cases: binding
[1] = target: HLA-DR DRB1*03:01 (Homo sapiens, UniProt P01903+P01911, A100K/A102G/A103R/A169T/F55Y/I96L/K41T/L162R/M171V/P40S/Q125H/Q178H/Q39Y/R42S/S66N/T106N/T262R/W38E/Y61H)
[2] = target: HLA-DR DRB1*04:05 (Homo sapiens, UniProt P01903+P01911, A100R/A169T/D86S/F76Y/I96L/K127E/L162R/M171V/N62H/P40V/Q125Y/R42H/S133A/S149N/S66Y/V115G/V209L/W38E)
[3] = target: HLA-DR DRB1*09:01 (Homo sapiens, UniProt P01903+P01911, A100R/A103E/D57H/D86V/F55Y/F60I/F76Y/I96F/K127E/L162R/M171V/P40D/Q125H/Q99R/R33Q/R42F/S133A/S66N/T210M/V115G/W38K/Y107V/Y59G/Y89S)
[4] = target: HLA-DR DRB1*11:01 (Homo sapiens, UniProt P01903+P01911, A100R/A169T/A87E/I96F/K41T/L162R/M171V/P40S/Q125H/Q178H/Q39Y/Q99D/R42S/S66Y/T262R/V115G/W38E)
[5] = target: HLA-DR DRB1*12:01 (Homo sapiens, UniProt P01903+P01911, A100R/A169T/D57E/D86V/F55L/H45Y/K41T/L162R/M171V/P40S/Q125H/Q178H/Q39Y/Q99D/R42G/S66L/T262R/V114A/V67L/W38E/Y59H/Y61H/Y89S)
[6] = target: HLA-DR DRB1*15:01 (Homo sapiens, UniProt P01903+P01911)
[7] = target: HLA-DR DRB1*16:02 (Homo sapiens, UniProt P01903+P01911, A100R/F76Y/I96L/Q99D/V115G)
[8] = target: HLA-DR DRB3*02:02 (Homo sapiens, UniProt P01903+P79483, A212P/D57E/F66Y/L67A/R103Q/R218S/R40L/S89Y/T80R/V86D/Y55F/Y59H)
[9] = target: HLA-DR DRB4*01:01 (Homo sapiens, UniProt P01903+P13762, G164S); conditions: read-out: Binding capacity/IC50 (nM) DRB4*01:01
[10] = target: HLA-DR DRB5*01:01 (Homo sapiens, UniProt P01903+Q30154); conditions: read-out: Binding capacity/IC50 (nM) DRB5*01:01
[11] = target: T1, HLA-DP DPA1*01:03/DPB1*02:01 (Homo sapiens, UniProt P04440+P20036, A65V/A84D/A85E/K98E)
T1 sequence (P20036 29-260): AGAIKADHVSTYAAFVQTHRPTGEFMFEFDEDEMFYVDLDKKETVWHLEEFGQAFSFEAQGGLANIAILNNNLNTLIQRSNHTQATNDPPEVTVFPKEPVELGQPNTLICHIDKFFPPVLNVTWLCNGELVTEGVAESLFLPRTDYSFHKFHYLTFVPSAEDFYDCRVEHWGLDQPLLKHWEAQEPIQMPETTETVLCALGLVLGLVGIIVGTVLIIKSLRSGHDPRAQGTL
T1 sequence (P04440 30-258 A65V/A84D/A85E/K98E): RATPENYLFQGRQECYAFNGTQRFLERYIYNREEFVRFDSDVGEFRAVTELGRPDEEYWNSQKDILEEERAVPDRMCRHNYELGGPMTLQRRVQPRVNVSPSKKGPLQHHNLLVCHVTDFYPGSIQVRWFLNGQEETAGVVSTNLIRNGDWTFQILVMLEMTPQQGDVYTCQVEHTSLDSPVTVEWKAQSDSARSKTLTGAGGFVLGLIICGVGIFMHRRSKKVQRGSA

[12] = target: T2, HLA-DP DPA1*01:03/DPB1*04:01 (Homo sapiens, UniProt P04440+P20036)
T2 sequence (P20036 29-260): T1 sequence (P20036 29-260)
T2 sequence (P04440 30-258): T1 sequence (P04440 30-258 A65V/A84D/A85E/K98E) with V36A, D55A, E56A, E69K

[13] = target: T3, HLA-DP DPA1*02:01/DPB1*14:01 (Homo sapiens, UniProt P04440+P20036, A65V/A84D/A85E/E86D/F191V/F38H/G113D/G114E/G40L/I94L/K142R/L158P/L37V/M105V/M116V/M62Q/P115A/Q81R/R125K/T114A/T199I/T259P); conditions: read-out: Binding capacity/IC50 (nM) DPA1*02:01 DPB1*14:01
T3 sequence (P20036 29-260 A42M/M62Q/Q81R/T114A/K142R/L158P/F191V/T259P): T1 sequence (P20036 29-260) with A14M, M34Q, Q53R, T86A, K114R, L130P, F163V, T231P
T3 sequence (P04440 30-258 L37V/F38H/G40L/A65V/A84D/A85E/E86D/I94L/M105V/G113D/G114E/P115A/M116V/R125K/T199I/R223Q): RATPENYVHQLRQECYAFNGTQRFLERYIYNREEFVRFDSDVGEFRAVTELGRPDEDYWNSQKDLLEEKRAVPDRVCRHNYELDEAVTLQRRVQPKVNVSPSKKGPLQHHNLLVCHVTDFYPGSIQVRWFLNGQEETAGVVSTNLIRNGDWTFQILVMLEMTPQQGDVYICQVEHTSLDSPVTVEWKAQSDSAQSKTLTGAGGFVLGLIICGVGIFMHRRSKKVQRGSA

[14] = read-out: Binding capacity/IC50 (nM) DRB1*03:01
[15] = read-out: Binding capacity/IC50 (nM) DRB1*04:05
[16] = read-out: Binding capacity/IC50 (nM) DRB1*09:01
[17] = read-out: Binding capacity/IC50 (nM) DRB1*11:01
[18] = read-out: Binding capacity/IC50 (nM) DRB1*12:01
[19] = read-out: Binding capacity/IC50 (nM) DRB1*16:02
[20] = read-out: Binding capacity/IC50 (nM) DRB3*02:02
[21] = read-out: Binding capacity/IC50 (nM) DPA1*01:03 DPB1*02:01
[22] = read-out: Binding capacity/IC50 (nM) DRB1*15:01
[23] = read-out: Binding capacity/IC50 (nM) DPA1*01:03 DPB1*04:01

| Structure (SMILES) | IC50 [1, 14] [nM] | IC50 [2, 15] [nM] | IC50 [3, 16] [nM] | IC50 [4, 17] [nM] | IC50 [5, 18] [nM] | IC50 [6] [nM] | IC50 [7, 19] [nM] | IC50 [8, 20] [nM] | IC50 [9] [nM] | IC50 [10] [nM] | IC50 [11, 21] [nM] | IC50 [12] [nM] | IC50 [13] [nM] | IC50 [1] [nM] | IC50 [2] [nM] | IC50 [3] [nM] | IC50 [4] [nM] | IC50 [5] [nM] | IC50 [6, 22] [nM] | IC50 [12, 23] [nM] | also measured |
| --- | --- | --- | --- | --- | --- | --- | --- | --- | --- | --- | --- | --- | --- | --- | --- | --- | --- | --- | --- | --- | --- |
| CC[C@H](C)[C@H](NC(=O)[C@H](CCCCN)NC(=O)[C@H](CCC(N)=O)NC(=O)[C@@H](NC(=O)[C@H](C)NC(=O)[C@H](CCC(=O)O)NC(=O)[C@@H](N)[C@@H](C)O)C(C)C)C(=O)N[C@@H](C)C(=O)N[C@H](C(=O)N[C@@H](CCC(=O)O)C(=O)N[C@@H](CO)C(=O)N[C@H](C(=O)N[C@H](C(=O)N[C@H](C(=O)N[C@@H](Cc1c[nH]c2ccccc12)C(=O)NCC(=O)N[C@@H](CCCCN)C(=O)N[C@H](C(=O)N1CCC[C@H]1C(=O)N[C@@H](CCCCN)C(=O)N[C@@H](Cc1ccccc1)C(=O)N[C@@H](CCCNC(=N)N)C(=O)N[C@@H](CC(C)C)C(N)=O)[C@@H](C)O)[C@@H](C)CC)C(C)C)[C@@H](C)CC)[C@@H](C)O [RT(369-391)] | 287 | 2630 | 310 | 329 | 471 | 447 | 2130 | 8840 | 20 | 68 | 2210 | 3220 | 78 |  |  |  |  |  |  |  |  |
| CC(C)C[C@H](NC(=O)[C@H](CCCCN)NC(=O)[C@@H](NC(=O)[C@H](CC(C)C)NC(=O)[C@@H]1CCCN1C(=O)[C@@H]1CCCN1C(=O)[C@@H](NC(=O)[C@H](CC(N)=O)NC(=O)[C@@H](NC(=O)[C@H](Cc1ccccc1)NC(=O)[C@H](CCC(=O)O)NC(=O)[C@H](Cc1c[nH]c2ccccc12)NC(=O)[C@@H](N)CCC(=O)O)C(C)C)[C@@H](C)O)C(C)C)C(=O)N[C@@H](Cc1c[nH]c2ccccc12)C(=O)N[C@@H](Cc1ccc(O)cc1)C(N)=O [RT(413-427)] |  |  |  |  |  |  |  | 4.4 | 1420 | 14 | 639 |  | 1200 | 469 | 78 | 57 | 312 | 260 | 329 | 846 | IC50 [7]: 10 nM |
| CC[C@H](C)[C@H](NC(=O)[C@@H](NC(=O)[C@H](CCCCN)NC(=O)[C@@H](NC(=O)[C@@H]1CCCN1C(=O)[C@H](Cc1c[nH]c2ccccc12)NC(=O)[C@H](CCCNC(=N)N)NC(=O)CNC(=O)[C@H](C)NC(=O)[C@H](CC(C)C)NC(=O)[C@H](CCCCN)NC(=O)[C@H](CC(C)C)NC(=O)[C@@H](NC(=O)[C@H](Cc1ccccc1)NC(=O)[C@H](Cc1ccc(O)cc1)NC(=O)[C@H](C)NC(=O)[C@@H](NC(=O)[C@@H](N)CCC(=O)O)[C@@H](C)O)[C@@H](C)CC)C(C)C)C(C)C)C(N)=O [integrase(96-113)] | 224 | 629 | 390 | 27 | 1510 |  | 106 | 7470 | 3080 | 4.4 | 697 |  | 12800 |  |  |  |  |  | 284 | 232 |  |
| CC[C@H](C)[C@H](NC(=O)[C@H](CCCCN)NC(=O)[C@@H](NC(=O)[C@@H](NC(=O)[C@@H](N)CCC(N)=O)[C@@H](C)CC)[C@@H](C)O)C(=O)N[C@@H](CCC(N)=O)C(=O)N[C@@H](CC(N)=O)C(=O)N[C@@H](Cc1ccccc1)C(=O)N[C@@H](CCCNC(=N)N)C(=O)N[C@H](C(=O)N[C@@H](Cc1ccc(O)cc1)C(=O)N[C@@H](Cc1ccc(O)cc1)C(=O)N[C@@H](CCCNC(=N)N)C(=O)N[C@@H](CC(=O)O)C(=O)N[C@@H](CO)C(=O)N[C@@H](CCCNC(=N)N)C(=O)N[C@@H](CC(=O)O)C(=O)N1CCC[C@H]1C(=O)N[C@H](C(=O)N[C@@H](Cc1c[nH]c2ccccc12)C(N)=O)[C@@H](C)CC)C(C)C [integrase(216-235)] | 11 | 179 | 542 | 288 | 6.6 | 5.3 | 7.1 |  | 2080 | 9.5 |  | 1070 | 145 |  |  |  |  |  |  |  | IC50 [8]: 414 nM; IC50 [11]: 311 nM |
| CC[C@H](C)[C@H](NC(=O)[C@H](C)NC(=O)[C@H](CCCCN)NC(=O)[C@H](CCCCN)NC(=O)CNC(=O)[C@H](CS)NC(=O)[C@@H](NC(=O)[C@H](CCC(=O)O)NC(=O)[C@@H](NC(=O)[C@H](CC(C)C)NC(=O)[C@@H](NC(=O)[C@H](CCC(N)=O)NC(=O)[C@H](CC(=O)O)NC(=O)[C@H](Cc1ccc(O)cc1)NC(=O)[C@H](CCC(N)=O)NC(=O)[C@H](CCCNC(=N)N)NC(=O)[C@@H](NC(=O)[C@H](CCCCN)NC(=O)[C@@H](NC(=O)[C@@H](N)Cc1ccccc1)[C@@H](C)CC)C(C)C)[C@@H](C)CC)[C@@H](C)CC)[C@@H](C)CC)C(=O)NCC(=O)N[C@H](C(=O)N[C@H](C(N)=O)C(C)C)[C@@H](C)O [protease(53-75)] |  |  |  |  |  |  |  | 9690 | 302 | 93 | 41 |  | 1250 | 347 | 282 | 234 | 1360 | 77 | 111 | 452 | IC50 [7]: 388 nM |
